Data on 13 compounds can be found in ChEMBL document CHEMBL1201862, “PubChem BioAssay data set” (2004).

Molecules are shown by their SMILES.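 All cell lines were grown in 96-well plates and treated with compound for 48 hours. At the GI50, growth is halved.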 Calls of active or inactive are those of the source. Cut-off read from the data, not from the text of the source: active = GI50 up to about 1.1 µM and inactive = higher. Some results are limits rather than exact numbers.

Some test systems named below: HT-29; DMS-114; OVCAR-4; CAKI-1; COLO 205; SF-295; HOP-18; CCRF-CEM; A498; MOLT-4; SNB-19; NCI-H522; SK-MEL-28; SNB-75; K562; RPMI-8226; SR; PC-3; MDA-MB-435; T47D.
Common to all, as to experiment: NCI-60 cell line screen, 48 h

For `COc1ccc2cc1Oc1ccc(cc1)C[C@H]1c3cc(c(OC)cc3CCN1C)Oc1c(O)c(OC)cc3c1[C@H](C2)N(C)CC3` [FANGCHINOLINE], the GI50 is 22.3 µM (inactive) in the experiment with HT-29; 24.7 µM (inactive) with DMS-114; 26.5 µM (inactive) in the experiment with OVCAR-4; 3.54 µM (inactive) with CAKI-1; 15.8 µM (inactive) with COLO 205; 16.9 µM (inactive) in the experiment with SF-295. The GI50 in the experiment on HOP-18 is 32.2 µM (inactive); in the experiment on CCRF-CEM it was 24.3 µM (inactive); in the experiment with A498, 18 µM (inactive); with MOLT-4, 11.7 µM (inactive); with SNB-19 it was 43.8 µM (inactive); in the experiment on NCI-H522 it was 27.5 µM (inactive). Further, the GI50 in the experiment with SK-MEL-28 is 21.8 µM (inactive); in the experiment on SNB-75 it was 28.7 µM (inactive); in the experiment with K562, 11.4 µM (inactive); in the experiment on RPMI-8226, 8.91 µM (inactive).
Take `N/C(=N\O)N/N=C\c1cc([N+](=O)[O-])cc([N+](=O)[O-])c1O`: the GI50 in the experiment with HT-29 is 11.4 µM (inactive); in the experiment with DMS-114, 6.08 µM (inactive); in the experiment with OVCAR-4, > 96.2 µM (inactive); in the experiment on CAKI-1 it was 5.66 µM (inactive); in the experiment on COLO 205, 15.3 µM (inactive); in the experiment with SF-295 it was 4.16 µM (inactive). For the same compound, the GI50 with HOP-18 was > 100 µM (inactive); with CCRF-CEM, 6.61 µM (inactive); with A498 it was > 23.2 µM (inactive); with MOLT-4, 10.2 µM (inactive); with SNB-19, > 96.2 µM (inactive); in the experiment with NCI-H522, 12.5 µM (inactive). Besides, the GI50 was > 100 µM (inactive) in the experiment with SK-MEL-28, 5.26 µM (inactive) with K562 and 16.5 µM (inactive) with RPMI-8226.
Regarding `CCCCCCCCCCCC1=C(O)C(=O)C=C(O)C1=O` [EMBELIN], the GI50 in the experiment on HT-29 was 8.15 µM (inactive); with DMS-114, 5.47 µM (inactive); in the experiment with OVCAR-4, 10 µM (inactive); in the experiment with CAKI-1, 4.26 µM (inactive); in the experiment on COLO 205, 7.5 µM (inactive); in the experiment with SF-295 it was 6.03 µM (inactive). Besides, the GI50 in the experiment with HOP-18 was 4.58 µM (inactive); in the experiment on CCRF-CEM it was 4.27 µM (inactive); with A498, 5.75 µM (inactive); with MOLT-4 it was 6.35 µM (inactive); in the experiment with SNB-19, 16.3 µM (inactive); in the experiment on NCI-H522 it was 8.95 µM (inactive). In addition, the GI50 was 6.67 µM (inactive) in the experiment with SK-MEL-28, 6.31 µM (inactive) with SNB-75, 7.67 µM (inactive) with K562 and 3.81 µM (inactive) in the experiment on RPMI-8226.
In the case of `CSc1nc2c(ncn2C2OCC(O)C(O)C2O)c(=O)n1C` (centres undefined), the GI50 with HT-29, in the experiment with DMS-114, in the experiment with OVCAR-4, in the experiment on COLO 205, in the experiment on SF-295 and in the experiment on HOP-18 was > 100 µM (inactive) throughout. Also, the GI50 in the experiment on CCRF-CEM, with A498, in the experiment on MOLT-4, in the experiment on SNB-19, with NCI-H522 and with SK-MEL-28 was > 100 µM (inactive) throughout. Moreover, the figures for the GI50 in the experiment on SNB-75, in the experiment on K562 and in the experiment on RPMI-8226 were 73.6 µM (inactive), > 100 µM (inactive) and > 100 µM (inactive), respectively.
Take `CCOC(=O)c1ccc(N[C@@H]2c3cc4c(cc3C(c3cc(OC)c(O)c(OC)c3)[C@H]3C(=O)OCC32)OCO4)cc1` (some centres undefined): the GI50 in the experiment with HT-29 is 1.94 µM (inactive); in the experiment with DMS-114 it was 0.56 µM (active); with OVCAR-4, 4.21 µM (inactive); in the experiment on CAKI-1, 0.251 µM (active); in the experiment with COLO 205, 3.15 µM (inactive); in the experiment with SR, 0.0474 µM (active). For the same compound, the GI50 was 0.0818 µM (active) in the experiment with CCRF-CEM; 0.244 µM (active) in the experiment on A498; 0.0142 µM (active) with MOLT-4; 1.61 µM (inactive) in the experiment with PC-3; 0.36 µM (active) with SNB-19; 3.07 µM (inactive) in the experiment on MDA-MB-435. Besides, the figures for the GI50 in the experiment on SK-MEL-28, with SNB-75 and in the experiment on RPMI-8226 were 2.55 µM (inactive), 1.21 µM (inactive) and 0.145 µM (active), respectively.
As to `COc1cc(C2c3cc4c(cc3[C@@H](Nc3ccc(N5CCOCC5)cc3)C3COC(=O)[C@H]23)OCO4)cc(OC)c1O` (some centres undefined), the GI50 in the experiment on HT-29 was 1.65 µM (inactive); in the experiment with OVCAR-4, 9.84 µM (inactive); in the experiment with CAKI-1, 0.4 µM (active); in the experiment on COLO 205 it was 2 µM (inactive); in the experiment with SF-295, 0.296 µM (active); with HOP-18, 0.977 µM (active). Moreover, the GI50 was 0.136 µM (active) in the experiment with CCRF-CEM; 1.01 µM (active) in the experiment with A498; 0.0207 µM (active) in the experiment with MOLT-4; 0.2 µM (active) in the experiment on SNB-19; 1.41 µM (inactive) in the experiment on NCI-H522; 3.82 µM (inactive) in the experiment with SK-MEL-28. The GI50 was 5.19 µM (inactive) in the experiment on SNB-75, 1.39 µM (inactive) in the experiment with K562 and 0.223 µM (active) in the experiment with RPMI-8226.
On to `ClCc1nnc2n1-c1ccc(Cl)cc1SC2`, for which the GI50 in the experiment on HT-29 was 3.65 µM (inactive); in the experiment with DMS-114, 2.8 µM (inactive); with OVCAR-4, 3.89 µM (inactive); in the experiment with COLO 205, 4.06 µM (inactive); in the experiment with SF-295, 2.21 µM (inactive); in the experiment with HOP-18, 2.92 µM (inactive). Also, the GI50 with CCRF-CEM is 2.19 µM (inactive); in the experiment with A498 it was 4.03 µM (inactive); in the experiment on MOLT-4, 1.45 µM (inactive); in the experiment on SNB-19, 13 µM (inactive); in the experiment with NCI-H522, 1.63 µM (inactive); in the experiment on SK-MEL-28 it was 4.74 µM (inactive). Besides, the GI50 with SNB-75 is 3.15 µM (inactive); with K562, 2.9 µM (inactive); in the experiment on RPMI-8226 it was 3.3 µM (inactive).
As for `C=C/C(C)=C/[C@H](C)C(=O)C[C@H](O)CC1CC(=O)NC(=O)C1`, the GI50 was 34 µM (inactive) in the experiment on HT-29; 38.3 µM (inactive) with DMS-114; 19.6 µM (inactive) with OVCAR-4; 13.6 µM (inactive) in the experiment with CAKI-1; 34.1 µM (inactive) in the experiment on COLO 205; 36.1 µM (inactive) in the experiment on SF-295. Moreover, the GI50 is 19 µM (inactive) in the experiment with HOP-18; 25 µM (inactive) with CCRF-CEM; 30.9 µM (inactive) in the experiment on A498; 19.8 µM (inactive) in the experiment with MOLT-4; 18.7 µM (inactive) with SNB-19; 21.2 µM (inactive) in the experiment on NCI-H522. The GI50 is 28.6 µM (inactive) with SK-MEL-28, > 55.8 µM (inactive) in the experiment with SNB-75, 43.4 µM (inactive) with K562 and 31.8 µM (inactive) in the experiment on RPMI-8226.
Regarding `C#CC[C@@]12CC(=O)C[C@@H]1CCC1(C2)OCCO1.C#CC[C@]12CC(=O)CC[C@H]1CC(=O)C2`, the GI50 in the experiment with HT-29 is > 100 µM (inactive); in the experiment on OVCAR-4 it was > 100 µM (inactive); in the experiment with COLO 205, > 100 µM (inactive); in the experiment with SF-295, > 100 µM (inactive); in the experiment with HOP-18, 90.6 µM (inactive); in the experiment with CCRF-CEM, 60.1 µM (inactive). The GI50 in the experiment on A498 was > 100 µM (inactive); in the experiment with MOLT-4 it was 34.4 µM (inactive); in the experiment on SNB-19 it was > 100 µM (inactive); in the experiment on NCI-H522 it was > 100 µM (inactive); in the experiment on SK-MEL-28 it was > 100 µM (inactive); in the experiment on SNB-75, 97.7 µM (inactive). Besides, the GI50 with K562 is 59.7 µM (inactive); in the experiment on RPMI-8226 it was > 100 µM (inactive).
On to `O=C1C2Cc3ccccc3CN2C(=O)N1CN1CCCCC1` (centres undefined), for which the GI50 was > 100 µM (inactive) in the experiment with DMS-114; > 100 µM (inactive) with OVCAR-4; > 100 µM (inactive) with CAKI-1; > 100 µM (inactive) with COLO 205; 97.5 µM (inactive) in the experiment on SR; > 100 µM (inactive) in the experiment on SF-295. For the same compound, the GI50 in the experiment on CCRF-CEM is 43.4 µM (inactive); in the experiment with A498, > 100 µM (inactive); in the experiment with MOLT-4, > 100 µM (inactive); in the experiment with SNB-19, > 100 µM (inactive); with NCI-H522, > 100 µM (inactive); in the experiment on SK-MEL-28, > 100 µM (inactive). The GI50 was > 100 µM (inactive) with K562 and 31.1 µM (inactive) in the experiment with RPMI-8226.
Take `CCCCOP(C)(=O)C(NC(=O)OCC)(C(F)(F)F)C(F)(F)F` (centres undefined): the GI50 in the experiment on HT-29, with OVCAR-4, in the experiment with T47D, in the experiment with CAKI-1, in the experiment on COLO 205 and in the experiment on SR was > 100 µM (inactive) in each case. Also, the GI50 with SF-295, in the experiment with CCRF-CEM, in the experiment with A498, in the experiment with MOLT-4, in the experiment on PC-3 and with SNB-19 was > 100 µM (inactive) throughout. The GI50 in the experiment on MDA-MB-435 is > 100 µM (inactive); in the experiment with NCI-H522 it was 65.8 µM (inactive); in the experiment with SK-MEL-28 it was > 100 µM (inactive); in the experiment with SNB-75, > 100 µM (inactive); in the experiment with K562, > 100 µM (inactive); in the experiment on RPMI-8226 it was > 100 µM (inactive).
Take `COc1ccc(C2C(C(=O)O)=C(COC(C)=O)Oc3cc4c(cc32)OCO4)cc1` (centres undefined): the GI50 in the experiment on HT-29, in the experiment with DMS-114, in the experiment with OVCAR-4, in the experiment with CAKI-1, in the experiment on COLO 205 and with SF-295 was > 100 µM (inactive) in each case. Besides, the GI50 with HOP-18, in the experiment on CCRF-CEM, in the experiment with MOLT-4, in the experiment on SNB-19, in the experiment on SK-MEL-28 and with SNB-75 was > 100 µM (inactive) in each case. In addition, the GI50 in the experiment with K562 and in the experiment with RPMI-8226 was > 100 µM (inactive) each time.
Consider `COC(=O)C1=COC2OC3/C(=C\c4ccc(O)c(OC)c4)C(=O)OC34C=CC1C24` (centres undefined), for which the GI50 in the experiment on HT-29 is 19.2 µM (inactive); with DMS-114, 24.7 µM (inactive); in the experiment on OVCAR-4 it was 17.6 µM (inactive); in the experiment on CAKI-1, 23.3 µM (inactive); with COLO 205, 20.1 µM (inactive); in the experiment on SR it was 28.8 µM (inactive). Further, the GI50 was 17.2 µM (inactive) in the experiment with SF-295; 23.2 µM (inactive) in the experiment on CCRF-CEM; 27.7 µM (inactive) with A498; 31.2 µM (inactive) in the experiment with MOLT-4; 19.6 µM (inactive) in the experiment with SNB-19; 15.2 µM (inactive) with NCI-H522. Moreover, the GI50 is 18.6 µM (inactive) with SK-MEL-28, 11.7 µM (inactive) with SNB-75, 15.5 µM (inactive) with K562 and 26.1 µM (inactive) in the experiment with RPMI-8226.
